# Measured values taken from US6780853B1, “Neuroactive steroids of the androstane and pregnane series” (priority 1995, dated 2004).
# Marks after values point to notes of the source that are not given here.
# How the values were obtained:
# [1] = data from Swinyard & Woodhead 1982; cited from earlier work
# Estrogen Receptors = biological target: T1, Estrogen Receptors (Bos taurus, UniProt P49884); test: Inhibition of 3H-Estradiol Binding to Bovine Uteral Estrogen Receptors; settings: competitor 10^−6M; 3H-estradiol 0.15 nM
# T1 construct: from tissue; host or cells: bovine uterus cytosol
# T1 sequence (P49884 1-596): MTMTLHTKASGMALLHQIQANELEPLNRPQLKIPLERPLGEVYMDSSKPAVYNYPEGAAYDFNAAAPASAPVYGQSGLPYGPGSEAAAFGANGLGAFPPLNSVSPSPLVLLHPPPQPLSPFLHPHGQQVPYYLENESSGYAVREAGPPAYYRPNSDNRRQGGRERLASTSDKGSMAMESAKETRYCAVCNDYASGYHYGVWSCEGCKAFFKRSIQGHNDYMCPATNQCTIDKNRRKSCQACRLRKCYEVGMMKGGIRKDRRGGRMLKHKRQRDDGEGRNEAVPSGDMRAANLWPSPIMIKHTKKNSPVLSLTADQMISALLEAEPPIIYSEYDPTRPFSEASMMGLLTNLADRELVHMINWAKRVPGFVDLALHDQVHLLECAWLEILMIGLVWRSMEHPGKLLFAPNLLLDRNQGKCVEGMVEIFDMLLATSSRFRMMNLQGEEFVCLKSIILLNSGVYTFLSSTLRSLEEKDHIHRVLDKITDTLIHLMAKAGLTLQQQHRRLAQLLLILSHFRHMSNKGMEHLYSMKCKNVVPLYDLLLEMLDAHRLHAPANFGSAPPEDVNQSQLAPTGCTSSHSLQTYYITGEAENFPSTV
# Procedure: (§1) Various hormonal activities of representative neuroactive steroids were further studied through testing their potential estrogenic, mineralocorticoid and glucocorticoid activities. These activities were analyzed by monitoring the ability of the compounds to inhibit binding of the steroid hormones to their respective hormone receptors.
# Glucocorticoid Receptors = biological target: T2, Glucocorticoid Receptors (Rattus norvegicus, UniProt P06536); test: Inhibition of 3H-Dexamethasone Binding to Glucocorticoid Receptors; settings: competitor 10^−6M; 3 nM 3H-dexamethasone
# T2 construct: from tissue; host or cells: rat brain cytosol
# T2 sequence (P06536 1-795): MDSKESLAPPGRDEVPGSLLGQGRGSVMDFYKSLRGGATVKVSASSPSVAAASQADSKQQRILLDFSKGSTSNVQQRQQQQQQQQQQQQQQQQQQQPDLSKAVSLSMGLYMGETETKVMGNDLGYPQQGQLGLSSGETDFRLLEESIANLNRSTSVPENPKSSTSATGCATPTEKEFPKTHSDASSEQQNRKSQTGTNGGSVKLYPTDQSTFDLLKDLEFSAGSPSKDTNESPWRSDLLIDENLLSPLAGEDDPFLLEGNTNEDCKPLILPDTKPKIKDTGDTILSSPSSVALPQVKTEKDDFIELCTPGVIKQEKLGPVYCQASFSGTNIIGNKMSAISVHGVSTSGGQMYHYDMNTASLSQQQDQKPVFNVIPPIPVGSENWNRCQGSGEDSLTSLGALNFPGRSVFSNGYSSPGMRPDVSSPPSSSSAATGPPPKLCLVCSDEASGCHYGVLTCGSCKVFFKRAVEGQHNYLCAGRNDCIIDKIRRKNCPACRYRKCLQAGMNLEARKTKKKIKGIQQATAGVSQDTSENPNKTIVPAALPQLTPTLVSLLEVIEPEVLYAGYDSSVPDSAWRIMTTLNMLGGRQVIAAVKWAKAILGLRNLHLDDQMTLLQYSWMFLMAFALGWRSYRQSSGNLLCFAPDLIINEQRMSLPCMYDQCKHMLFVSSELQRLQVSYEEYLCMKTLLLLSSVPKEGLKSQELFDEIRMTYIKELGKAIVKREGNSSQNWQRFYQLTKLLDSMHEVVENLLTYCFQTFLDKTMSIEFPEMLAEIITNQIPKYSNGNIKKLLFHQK
# Procedure: as §1
# For Table 4, brain cytosol fractions were prepared as for Table 3, and the compounds were incubated with 3 nM of ^3H-dexamethasone (the specific ligand for the glucocorticoid receptor).
# [2] = biological target: T3, Mineralocorticoid Receptors (Rattus norvegicus, UniProt P22199); test: Inhibition of 3H-Aldosterone Binding to Hippocampal Mineralocorticoid Receptors; settings: competitor 10^−6M; 3 nM 3H-aldosterone, RU28362 0.5 μM
# T3 construct: To isolate the mineralocorticoid receptor, brain cytosol fractions were prepared; from tissue; host or cells: brain (hippocampal) cytosol of adrenalectomized rats
# T3 sequence (P22199 1-981): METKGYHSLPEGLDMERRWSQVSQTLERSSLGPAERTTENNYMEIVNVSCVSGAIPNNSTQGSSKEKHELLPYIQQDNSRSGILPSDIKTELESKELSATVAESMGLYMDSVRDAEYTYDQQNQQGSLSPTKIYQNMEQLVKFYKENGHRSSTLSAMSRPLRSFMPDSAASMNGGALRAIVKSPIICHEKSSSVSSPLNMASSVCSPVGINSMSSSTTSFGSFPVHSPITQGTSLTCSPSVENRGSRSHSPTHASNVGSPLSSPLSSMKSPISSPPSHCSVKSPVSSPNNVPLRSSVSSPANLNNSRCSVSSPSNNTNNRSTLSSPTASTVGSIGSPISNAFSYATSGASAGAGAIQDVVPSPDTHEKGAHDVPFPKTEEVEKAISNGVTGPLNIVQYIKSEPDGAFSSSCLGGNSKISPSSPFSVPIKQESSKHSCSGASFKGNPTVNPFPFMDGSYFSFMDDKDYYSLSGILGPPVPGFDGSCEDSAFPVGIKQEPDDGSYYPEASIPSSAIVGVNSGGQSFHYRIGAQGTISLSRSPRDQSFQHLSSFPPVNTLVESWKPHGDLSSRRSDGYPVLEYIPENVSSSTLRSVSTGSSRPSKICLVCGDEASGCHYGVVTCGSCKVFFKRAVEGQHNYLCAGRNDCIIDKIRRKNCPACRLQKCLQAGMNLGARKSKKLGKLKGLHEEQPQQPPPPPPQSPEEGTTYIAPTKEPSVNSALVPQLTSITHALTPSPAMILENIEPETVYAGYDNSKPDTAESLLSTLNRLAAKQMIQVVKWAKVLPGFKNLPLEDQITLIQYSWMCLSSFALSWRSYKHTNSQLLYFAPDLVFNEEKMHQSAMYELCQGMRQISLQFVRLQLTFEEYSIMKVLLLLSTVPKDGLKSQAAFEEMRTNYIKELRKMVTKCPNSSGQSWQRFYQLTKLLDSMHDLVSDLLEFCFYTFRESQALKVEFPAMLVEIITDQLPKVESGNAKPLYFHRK
# Procedure: as §1
# In Table 4, rats were adrenalectornized 3 days prior to sacrifice.
# Progesterone Receptors = test: Inhibition of 3H-Progesterone Binding to the Bovine Uteral Progesterone Receptors; settings: competitor 10^−6M; 3H-progesterone 0.15 nM
# punished responding = test: Geller-Seifter conflict test; assay type: in vivo, Sprague-Dawley rats
# Text: This animal model of human anxiety utilizes a conditioned state of conflict in rats to ascertain the anxiolytic properties of drugs. Rats are conditioned to bar press for positive reinforcement under two schedules of behavior (Geller and Seifter, Psychopharmacologia 1:482-492 (1960)). The first includes bar pressing under a […] schedule without punishment. The second component is a fixed ratio schedule with each bar press resulting in a positive reinforcement and a punishment The punished component produces a state of conflict within the animal. […] An anxiolytic response would increase the punished responding without affecting the unpunished responding.
# Male albino Sprague-Dawley rats (Charles River Labs, Wilmington, Mass.) weighing 250-300 g were used for conflict experiments and were kept on a restricted diet of Purina Lab Chow food pellets with water available at all times to maintain body weight at 85% of their free-feeding young adult levels. Rats were housed individually under a 12-hour light dark cycle with lights on from 0700-1900.
# The ant-anxiety (punishment-lessening) and response depressant effects of compounds of the present invention were measured in rats by the conflict test of Geller and Seifter. In this 63-min test hungry rats perform a lever-press response to obtain a sweetened milk reward. The reinforcement schedule consists of punishment and nonpunishment components, alternating approximately every 15 min. Rats were trained in test chambers (Coulbourn instruments) with a lever mounted in one wall, a small dipper that delivered the 0.1-mL milk reward (1 part Eagle condensed milk:2 parts water), and a metal grid floor through which the foot-shock punishment was administered. A DEC PDP 11/73 minicomputer running SKED (State Systems) was used for programming and recording.
# Rats initially learned to respond on a continuous reinforcement schedule and progressed rapidly to 30-sec, 1-min, and 2-min variable interval (VI) schedules. On the continuous reinforcement schedule, rats received milk reward following every lever press; on the VI schedules, milk rewards were available at infrequent and variable intervals, eventually at an average of once every 2 min. Four 3-min “conflict” periods were then introduced on the unpunished VI baseline; the first started after 3 min of VI performance and the others were alternated between 12-min periods of VI responding. During conflict periods, which were signalled by the presentation of a light and a tone, the continuous reinforcement schedule was again in force and each lever press delivered both a milk reward and a brief […] foot-shock punishment. […]
# [3] = system: time spent on the open-arms; test: Elevated plus-maze test; assay type: in vivo, N.I.H. Swiss-Webster mice; settings: IP, 50% hpbcd, 10 mg/kg
# [4] = system: maximal electroshock tonic seizure; test: Maximal electroshock test; assay type: in vivo, mice; settings: 20 mg/kg, i.p., 10 min, 50% hpbcd
# Text: The anticonvulsant tests are similar to that described above.
# [5] = system: metrazol induced convulsions; test: Antimetrazol activity in mice; assay type: in vivo; settings: 10 mg/kg, 50% hpbcd
# In short: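 Mice dosed with test compounds at various doses 10 minutes before metrazol (85 mg/kg) injection. Each animal observed for 30 minutes, recording time to onset of myoclonus (forelimb clonic activity).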
# loss-of-righting reflex = test: Anesthetic activity, loss-of-righting reflex; assay type: in vivo, mice; settings: iv, 50% hpbcd, 10 mg/kg
# Procedure: The compounds of and used in the invention can also be used for anesthetic indications at high doses. However, the preferred route of administration to induce anesthesia is intravenous (i.v.) administration. In animals, a drug's anesthetic properties is measured by the drug's ability to produce a loss-of-righting reflex. The loss-of-righting reflex is defined as the inability of an animal to right itself within 30 seconds when placed on its back. Mice were administered drug i.v. in the lateral tail vein. Following administration, mice were placed on their backs and observed for loss-of-righting reflex.
# [6] = biological target: GABA receptor complex (GRC); test: [35S]TBPS binding in rat cerebral cortex P2 homogenate
# In short: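 Male Sprague-Dawley rat cortical P2 homogenate (0.5 mg protein) incubated with 2 nM [35S]TBPS in 50 mM Na/K phosphate pH 7.4, 200 mM NaCl, with GABA plus (+)bicuculline, 90 min at 25 °C. Filter-bound radioactivity counted; non-specific binding with […]; IC50 and maximal inhibition by nonlinear regression.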
compound,measurement,setting,value
CCC1(c2ccccc2)C(=O)NC(=O)NC1=O [Phenobarbital],ED50 RR,[1],69 mg/kg
"CC(C)(O)[C@H]1CC[C@H]2[C@@H]3CC[C@H]4C[C@H](O)CC[C@]4(C)[C@H]3CC[C@]12C [5α-pregnan-20-dimethyl-3α,20-diol, 5α-pregnan-20-dimethyl-3α,20-diol]",% of Inhibition,Estrogen Receptors,0%
same,% of Inhibition,Glucocorticoid Receptors,2.6%
same,% of Inhibition,[2],0%
same,% of Inhibition,Progesterone Receptors,0%
COC[C@@]1(O)CC[C@@]2(C)[C@@H](CC[C@@H]3[C@@H]2CC[C@]2(C)[C@@H](C(C)=O)CC[C@@H]32)C1 [3α-Hydroxy-3β-methoxymethyl-5α-pregnan-20-one],Geller/Seifter (% or control),"punished responding; IP, 50% hpbcd, 10 mg/kg",958 % or control
"C[C@]12CC[C@@H](O)C[C@H]1CC[C@@H]1[C@@H]2CC[C@]2(C)[C@@H](C(=O)CO)CC[C@@H]12 [5β-pregnan-3α,21-diol-20-one, 5β-pregnan-3α,21-diol-20-one]",% of Inhibition,Estrogen Receptors,0%
same,% of Inhibition,Glucocorticoid Receptors,8.2%
same,% of Inhibition,[2],13.8%
same,% of Inhibition,Progesterone Receptors,6%
CCCC(CCC)C(=O)O [Valproate],ED50 RR,[1],514 mg/kg
C#C[C@@]1(O)CC[C@@]2(C)[C@H](CC[C@@H]3[C@@H]2CC[C@]2(C)[C@@H](OC)CC[C@@H]32)C1 [3β-ethynyl-3α-hydroxy-17β-methoxy-5β-androstane],"Plus-Maze (% Control), time spent on the open-arms",[3],123 % Control
same,MES % Protected,[4],31.2^b %
same,PTZ % Protected,"[5]; i.p., 10 min",50^c %
same,% Protected,"[5]; IP, 10 min before metrazol 85 mg/kg",50%
same,Loss-of-Righting Reflex (%),loss-of-righting reflex,50%
same,IC50,"[6]; concentration to inhibit 50% of control [35S]TBPS binding, 2 nM [35S]TBPS",0.049 µM
same,IMAX (maximum inhibition),[6]; maximum inhibition of [35S]TBPS binding,101%
"CC(=O)C1CCC2C3CCC4CC(O)(C(F)(F)F)CCC4(C)C3C(N(C)C)CC12C (stereo not drawn) [11α-N,N-Dimethylamino-3α-hydroxy-3β-trifluoromethyl-5β-pregnan-20-one]",Geller/Seifter (% or control),"punished responding; IP, citrate, 20 mg/kg",145 % or control
CCOC[C@@]1(O)CC[C@@]2(C)[C@@H](CC[C@@H]3[C@@H]2CC[C@]2(C)[C@@H](C(C)=O)CC[C@@H]32)C1 [3α-Hydroxy-3β-ethoxymethyl-5α-pregnan-20-one],Geller/Seifter (% or control),"punished responding; IP, 50% hpbcd, 40 mg/kg",3743 % or control
COCC1(O)CCC2(C)C(CCC3C2CCC2(C)C(C(=O)CSS(=O)(=O)[O-])CCC32)C1.[Na+] (stereo not drawn) [Sodium S-(3α-hydroxy-3β-methoxymethyl-5α-pregnan-20-on-21-yl)thiosulfate],Geller/Seifter (% or control),"punished responding; PO, water, 32 mg/kg",4487.5 % or control
